# Measured values: patent US12035738B2, “Low calorie food compositions” (Mars, Incorporated, priority 2015, dated 2024)
# Columns and labels:
# [1] = administered to humans as a drink; cited from earlier work
# [2] = parameters: species or system humans; conditions: in vivo
# Experimental: A panel of 10 assessors were used to evaluate sensory differences between cellobiose containing (2 levels; 75% and 100% sucrose substitution) and standard chocolate.
# The maximum amount of cellobiose consumed during one 3 hour sensory session was set at 20 g and 8 g respectively (100% cellobiose sample contained 49.5 g cellobiose/100 g, 75% cellobiose sample contained 34.7 g/100 g and 60% inulin sample contained 29.7 g inulin/100 g).
# For each attribute, panelists were presented with all samples (˜3.5 g sample size) allowing comparative assessment. Panelists first determined rank order and then assigned ratings using separate line scales for each sample/attribute.
# All samples were presented in 2 oz plastic pots labelled with random 3 digit codes. Panelists were provided with unsalted cracker (Rakusen, U.K.), green apple slices and mineral water (Evian, France) for palate cleansing. Attributes were assessed in blocks of 2 followed by 15 mins rest breaks.
# (§1) A number of gastro-intestinal symptoms were reported by the panelists in the 24 hours following the sensory sessions, the most common being flatulence (10/10 on at least 1 occasion) and bowel sounds (8/10 on at least 1 occasion). Some degree of […] discomfort was reported by 7/10 panelists on 1 or more occasions and 5 out of the 10 panelists suffered diarrhea following 1 or more sessions. A previous tolerability study carried out using cellobiose (H-09-2011) examined GI effects when cellobiose was delivered in a water based solution and used only male subjects aged between 18-35 yrs. The number and severity of symptoms seen in this study was not expected given the previous tolerability results where cellobiose was consumed as a drink (10, 20, 30 or 50 g of cellobiose was dissolved in 200 ml of hot water and allowed to cool to room temperature overnight). […] With the consumption of 30 g, 4 people (31%) experienced short duration abdominal pain (ranging in severity from 1 to 3 out of 5), 2 people (15%) reported mild flatulence (severity 1 out of 5) and one person reported this at a severity of 3 out of 5. […] Six subjects (46%) reported flatulence (range 1-4 out of 5), and 4 experienced abdominal pain (severity between 1-2 out of 5). Three quarters of subjects were happy to take part in future studies involving the ingestion of cellobiose, even at the highest dose.
# [3] = Previous tolerability study (H-09-2011), cellobiose consumed as a drink in water based solution; format: in vivo, humans
# Experimental: as §1
# [4] = 30 g cellobiose, severity 1 out of 5
smiles,measurement,setting,value
O=C[C@H](O)[C@@H](O)[C@H](O[C@@H]1O[C@H](CO)[C@@H](O)[C@H](O)[C@H]1O)[C@H](O)CO [cellobiose],unpleasant side effects,[1],not observed to such a great degree
same,panelists reporting bowel sounds,"[2]; human, 24 h",8/10
same,panelists reporting flatulence,"[2]; human, 24 h",10/10
same,panelists reporting some degree of abominable discomfort,"[2]; human, 24 h",7/10
same,panelists who suffered diarrhea,"[2]; human, 24 h",5 out of the 10 panelists
same,Symptoms (y/n),[2],Y
same,undesirable side effects,[2],"stomach cramps, nausea, diarrhea and loss of appetite"
same,abdominal symptoms reported,[3]; 10 g cellobiose in 200 ml water,mild or no abdominal symptoms
same,abdominal symptoms reported,[3]; 20 g cellobiose in 200 ml water,mild or no abdominal symptoms
same,people who experienced short duration abdominal pain,[3]; 30 g cellobiose,4 people
same,persons who reported flatulence at a severity of 3 out of 5,[3]; 30 g cellobiose,one
same,severity of mild flatulence,[3]; 30 g cellobiose,1 out of 5
same,share of people with short duration abdominal pain,[3]; 30 g cellobiose,31%
same,people who reported mild flatulence,[3]; [4],2 people
same,share of people with mild flatulence,[3]; [4],15%
same,abdominal pain severity,[3]; 50 g cellobiose,1-2 out of 5
same,flatulence severity range,[3]; 50 g cellobiose,1-4 out of 5
same,persons who reported diarrhea in the first 24 h,[3]; 50 g cellobiose,1
same,persons with a single episode of diarrhea 2 h after consuming,[3]; 50 g cellobiose,1 person
same,share of subjects who reported flatulence,[3]; 50 g cellobiose,46%
same,subjects who experienced abdominal pain,[3]; 50 g cellobiose,4
same,subjects who reported flatulence,[3]; 50 g cellobiose,Six
